Experimental data published in patent US20230381122A1, “APPLICATION OF N1-DIHYDROCAFFEOYL-N10-CAFFEOYLSPERMIDINE IN PREPARATION OF DRUG, HEALTH PRODUCT OR FUNCTIONAL FOOD” (NINGXIA MEDICAL UNIVERSITY, priority 2022, published 2023).

Assays:
[1] = Body weight of mice, PCPA-induced insomnia model; format: in vivo; conditions: for Body weight, after molding: after PCPA modeling, before administration; for Body weight, before molding: baseline before PCPA modeling; for Body weight, 3rd day of administration / Body weight, 7th day of administration: PCPA insomnia mice
Method: (§1) The pharmacodynamic evaluation of N1-dihydrocaffeoyl-N10-caffeoylspermidine for improving sleep effect was performed in a mouse insomnia model induced by injection of para-chlorophenylalanine (PCPA). The sedative hypnotic effect of N1-dihydrocaffeoyl-N10-caffeoylspermidine in mice with insomnia were evaluated by behavioral evaluation methods, such as recording of the number of autonomous activities, recording of body weight and inducing sleep experiments in mice with pentobarbital sodium. Brain tissues was obtained to determine the levels of neurotransmitters 5-HT, 5-HIAA, GABA and Glu, and to explore the possible mechanism of the sleep improving effect of N1-dihydrocaffeoyl-N10-caffeoylspermidine.
(§2) Healthy SPF grade male ICR mice (18-22 g) were obtained, which were provided by the animal experimental center of Ningxia Medical University (laboratory animal license number SCXK (Ningxia Medical University) 2020-0001). The mice were adaptively housed in a standard SPF grade laboratory with the same animal housing conditions for each group: ambient temperature (25° C.), relative humidity (50%-60%). The mice were free access to food and water.
(§3) After adaptive feeding, for 2 days of continuous modeling, the normal control group was given normal saline (0.1 mL/10 g/d), and the remaining groups received an intraperitoneal injection of PCPA suspension (400 mg/kg/d).
(§4) The mice in each group were administered sequentially from 8:00 am to 12:00 am daily for 7 days.
(2) Body weight: the body weight of mice in each group was recorded before modeling, after modeling, on the 3rd, 7th day of drug administration, respectively.

[2] = system: Glu; experiment: Glu level in brain tissue by ELISA; format: in vivo; conditions: PCPA insomnia mice
Method: as §1, §3, §4
(§5) After administration for 7 days, the mice were sacrificed by cervical dislocation, the brains were removed by decapitation on an ice table, ground evenly with a tissue homogenizer, and normal saline was added to make 10% brain tissue homogenate. The homogenate was centrifuged at 3000 r/min for 15 min at 4° C., then supernatants were collected, and levels of neurotransmitters 5-HT, 5-HIAA, Glu, and GABA were determined by ELISA.

[3] = system: PCPA-induced insomnia model of mice; experiment: Righting reflex experiment with pentobarbital sodium: sleep latency and sleep duration; format: in vivo; conditions: for Sleep duration / Sleep latency: pentobarbital sodium 50 mg/kg i.p. one hour after administration on the 7th day, PCPA insomnia mice
Method: as §1, §2, §3, §4
(3) Righting reflex experiment to determine sleep duration: one hour after administration on the 7th day, mice in each group were intraperitoneally injected with pentobarbital sodium suspension (50 mg/kg), and the sleep latency and sleep duration of mice were recorded. (Sleep latency was recorded from the end of the intraperitoneal injection until the disappearance of the mouse righting reflex for more than 1 min; time from falling asleep to the recovery of the mouse righting reflex was recorded as sleep duration.)

[4] = system: 5-HIAA; experiment: 5-HIAA level in brain tissue by ELISA; format: in vivo, mice; conditions: for 5-HIAA: brain tissue, PCPA insomnia mice
Method: as §1, §3, §4, §5

[5] = system: GABA; experiment: GABA level in brain tissue by ELISA; format: in vivo, mice; conditions: for GABA: brain tissue, PCPA insomnia mice
Method: as §1, §3, §4, §5

[6] = system: PCPA-induced insomnia model of mice; experiment: Number of autonomous activities of mice, PCPA-induced insomnia model; format: in vivo; conditions: for Number of autonomous activities, before administration: baseline after PCPA modeling; for Number of autonomous activities, before administration / Number of autonomous activities, after last administration: number in 5 min; for Number of autonomous activities, after last administration: half an hour after administration on the 7th day, PCPA insomnia mice
Method: as §1, §2, §3, §4
(1) Number of autonomous activities: after grouping as above, the number of autonomous activities of mice in 5 min was recorded after successful modeling and half an hour after administration on the 7th day, respectively. Mice were acclimatized into the apparatus for 3 min before each recording.

[7] = system: Glu/GABA; experiment: Glu/GABA ratio in brain tissue; format: in vivo, mice; conditions: for Glu/GABA: brain tissue, PCPA insomnia mice
Method: as §1, §3, §4, §5

[8] = system: 5-HT; experiment: 5-HT level in brain tissue by ELISA; format: in vivo, mice; conditions: for 5-HT: brain tissue, PCPA insomnia mice
Method: as §1, §3, §4, §5

[9] = groups at all doses (2, 40, 100 mg/kg/d), p<0.001
[10] = high dose 100 mg/kg/d for 7 days
[11] = groups at all doses (2, 40, 100 mg/kg/d), p<0.05
[12] = medium dose 40 mg/kg/d for 7 days
[13] = 10 mg/kg/d, listed as positive drug
[14] = positive drug group (melatonin 10 mg/kg/d)
[15] = 10 mg/kg/d for 7 days, 10 mg/kg/day
[16] = 10 mg/kg/d for 7 days, listed as positive drug, 10 mg/kg/day
[17] = 10 mg/kg/d for 7 days, listed as positive drug

Q: What does the source list for `O=C(/C=C/c1ccc(O)c(O)c1)NCCCNCCCCNC(=O)CCc1ccc(O)c(O)c1` [(E)-3-(3,4-dihydroxyphenyl)-N-(3-((4-(3,4-dihydroxyphenyl)propanamido)butyl)amino) propyl) acrylamide]?
A: Body weight, after molding ([1]; high dose group (100 mg/kg/d)): 26.87 ± 2.71 g; Body weight, after molding ([1]; low dose group (2 mg/kg/d)): 27.08 ± 3.74 g; Body weight, after molding ([1]; medium dose group (40 mg/kg/d)): 27.33 ± 2.13 g; Body weight, before molding ([1]; high dose group (100 mg/kg/d)): 26.18 ± 2.78 g; Body weight, before molding ([1]; low dose group (2 mg/kg/d)): 26.74 ± 2.63 g; Body weight, before molding ([1]; medium dose group (40 mg/kg/d)): 25.95 ± 1.99 g; Body weight on the 3rd day of administration compared with the model group [1, 9]: increased significantly; Body weight, 3rd day of administration ([1]; high dose 100 mg/kg/d): 32.36 ± 2.39 g; Body weight, 3rd day of administration ([1]; low dose 2 mg/kg/d): 32.02 ± 2.63 g; Body weight, 7th day of administration ([1]; low dose 2 mg/kg/d): 31.83 ± 2.77 g; Body weight, 3rd day of administration ([1]; medium dose 40 mg/kg/d): 31.34 ± 1.76 g; Body weight, 7th day of administration ([1]; medium dose 40 mg/kg/d): 32.12 ± 1.44 g; Glu [2, 10]: 63.90 ± 2.88 μmol/gprot; Glu ([2]; low dose 2 mg/kg/d for 7 days): 64.84 ± 4.18 μmol/gprot; Sleep duration compared with the model group [3, 11]: increased significantly; Sleep duration [3, 10]: 17.5 ± 3.15 min; Sleep duration ([3]; low dose 2 mg/kg/d for 7 days): 16.6 ± 9.53 min; Sleep duration [3, 12]: 19.9 ± 5.72 min; Sleep latency [3, 12]: 298.50 ± 29.08 s; 5-HIAA [4, 10]: 36.61 ± 1.84 ng/g; 5-HIAA ([4]; low dose 2 mg/kg/d for 7 days): 33.79 ± 2.51 ng/g; 5-HIAA [4, 12]: 36.69 ± 2.00 ng/g; 5-HIAA content in brain tissues compared with the model group ([4]; groups at all doses (2, 40, 100 mg/kg/d), p<0.01): significantly increased; GABA [5, 10]: 9.66 ± 1.30 nmol/L; GABA ([5]; low dose 2 mg/kg/d for 7 days): 8.53 ± 1.03 nmol/L; GABA [5, 12]: 9.69 ± 0.98 nmol/L; GABA content in brain tissues compared with the model group ([5]; groups at different doses (2, 40, 100 mg/kg/d), p<0.01): significantly increased; Number of autonomous activities, before administration ([6]; high dose group (100 mg/kg/d)): 248 ± 18.38; Number of autonomous activities, before administration ([6]; low dose group (2 mg/kg/d)): 249 ± 22.30; Number of autonomous activities, before administration ([6]; medium dose group (40 mg/kg/d)): 246 ± 16.13; Number of autonomous activities after last administration compared with before administration [6, 9]: significantly decreased; Number of autonomous activities, after last administration [6, 10]: 167 ± 43.35; Number of autonomous activities, after last administration ([6]; low dose 2 mg/kg/d for 7 days): 172 ± 26.39; Number of autonomous activities, after last administration [6, 12]: 179 ± 17.43; Glu/GABA [7, 10]: 7.66 ± 1.03; Glu/GABA ([7]; low dose 2 mg/kg/d for 7 days): 7.23 ± 1.90; Glu/GABA [7, 12]: 7.17 ± 1.20; Glu/GABA values in brain tissues compared with the model group ([7]; groups at different doses (2, 40, 100 mg/kg/d), p<0.05): significantly reduced; 5-HT [8, 10]: 302.55 ± 17.00 ng/g; 5-HT ([8]; low dose 2 mg/kg/d for 7 days): 271.37 ± 27.58 ng/g; 5-HT [8, 12]: 283.18 ± 9.86 ng/g; 5-HT content in brain tissues compared with the model group [8, 11]: significantly increased

Q: What does the source list for `COc1ccc2[nH]cc(CCNC(C)=O)c2c1` [Positive drug, melatonin, reference compound]?
A: Body weight, 3rd day of administration ([1]; 10 mg/kg/d): 31.33 ± 4.21 g; Body weight, 7th day of administration ([1]; 10 mg/kg/d): 33.67 ± 3.80 g; Body weight, 3rd day of administration [1, 13]: increased significantly; Body weight, 7th day of administration [1, 13]: increased significantly; Body weight, after molding [1, 14]: 26.26 ± 3.39 g; Body weight, before molding [1, 14]: 26.51 ± 2.23 g; Glu [2, 15]: 53.52 ± 7.23 μmol/gprot; Glu [2, 16]: 53.52±7.23 μmol/gprot; Sleep duration ([3]; 10 mg/kg/d for 7 days): 26.4 ± 6.92 min; Sleep latency ([3]; 10 mg/kg/d for 7 days): 226.00 ± 18.42 s; Sleep duration [3, 17]: increased significantly; Sleep latency [3, 17]: significantly reduced; 5-HIAA [4, 15]: 37.15 ± 1.56 ng/g; 5-HIAA [4, 16]: significantly increased; GABA [5, 15]: 6.89 ± 1.11 nmol/L; GABA [5, 16]: 6.89 ± 1.11 nmol/L; Number of autonomous activities, after last administration ([6]; 10 mg/kg/d for 7 days): 174 ± 20.81; Number of autonomous activities, after last administration [6, 17]: significantly decreased; Number of autonomous activities, before administration [6, 14]: 267 ± 15.15; Glu/GABA [7, 15]: 8.51 ± 1.55; Glu/GABA [7, 16]: significantly reduced
